In patent US12410220B2, “Modulation of mammalian cell lineage by synthetic immodulins” (priority 2021, dated 2025):
Where two headings read alike, the source gives them in different places. Marks after values point to notes of the source that are not given here. Ends that are not written are not given here. Peptide text beside a SMILES is read from it. * marks the point of attachment. RG108 = O=C1c2ccccc2C(=O)N1[C@@H](Cc1c[nH]c2ccccc12)C(=O)*

Key:
[1] = test system: THP1-Dual monocytes; assay: THP1-Dual differentiation assay, immX3 peptide plus helper or inhibitor molecule; format: cell-based, human; conditions: immX3 peptide (330 nM) in all samples plus helper at the concentration given; immX3 with buffer = 100.0
Method: (§1) Mammalian cell differentiation assays using THP1-Dual monocytes reporter cell line (Invivogen Inc, San Diego, CA) seeded at 2×10e5 cells per well in 96-well plates and cultured at 37 degrees C. in RPMI-1640 growth medium plus 10% fetal bovine serum and 1% penicillin/streptomycin, then treated for 24 hours with either 100 ng/ml Phorbol 12-myristate 13-acetate (PMA protocol; Cayman Chemical Company, Ann Arbor, MI) or a mixture of IL-4 (100 ng/ml), GM-CSF (100 ng/ml), TNF-alpha (20 ng/ml) and ionomycin (200 ng/ml) (Cytokine protocol; Peprotech, Rocky Hill, NJ). Peptide (330 nM) was then added, and incubation continued for an additional 24 hours. Culture supernatants were then assayed for CCL22. Plates with adherent cells were washed with PBS and assayed for immunoreactivity of surface markers such as CD169, Clec9a, Clec12a or MHCII using fuorescent tag- or biotin-labeled anti-human antibodies purchased from Miltenyi Biotec (Auburn, CA) and a relevant secondary detection reagent, or by fluorescence counts.
The THP1-Dual cell differentiation assay was carried out as described above in Example 2, using immX3 peptide (330 nM) in all samples plus the indicated helper or inhibitor molecule. AU=arbitrary ELISA units. **p<0.01.

[2] = test system: A375 cells; assay: A375 cell viability (CellTiterGlo); format: cell-based; conditions: 72 hours
Method: Immune modulation functions of immodulin peptides have great potential untility in the field of cancer. A375 cell line was obtained from American Type Culture Collection (ATCC). They were grown in a T-75 flask in DMEM Medium containing 10% fetal bovine serum and penicillin-streptomycin at 37° C. in a humidified, 5% CO2 incubator. Cells (100 µl, 2,000 cells/well) were plated in a 96-well plate and incubated overnight at 37° C. in a humidified, 5% CO2 incubator. Next day, 10 µl/well of compounds were added (quadruplicate wells). After 72 hour incubation with the compound, cell viability was measured in a luminometer after the addition of 100 IL/well CellTiterGlo reagent (Promega Inc, Madison, WI) as recommended by the manufacturer. Anti-cancer activity of immodulin peptides on A375 cells: A 96-well plate was seeded with 2,000 A375 cells per well in DMEM medium containing 10% FBS and PenStrep. After 24 hrs at 37 deg C., compounds and peptides were added (each treatment done in quadruplicate). After a further 72 hours incubation, 100 μL/well of CTG assay reagent purchased from Promega Inc. (Madison, WI) was added. Plate was read after 10 minutes, as recommended by the manufacturer. Peptides were added at 2 uM. The results of this experiment are shown below, expressed as percent survival of A375 cells.

[3] = test system: Pancreatic protease Type I; assay: Experiment 5A peptide stability to protease degradation; format: in vitro ADME; conditions: 20 minutes at 37 degrees C, read-out: percentage of surviving peptide after protease treatment
Method: Duplicate wells per dilution point in a 96-well NTA-coated plate (G-Biosciences, St. Louis, MO) charged with ferric chloride were adsorbed with 2 ug imm3N1V (V-nephrilin) or immX3N1 (sV-nephrilin) peptide per well for 30 min at room temperature, washed, then incubated with 100 ul/well of 8 or 2 μg/ml protease (Sigma Catalog #P4630, Pancreatic protease Type I) for 20 minutes at 37 degrees C. Plates were washed with PBS buffer and the remaining peptide bound was measured using an in-house calibrated anti-immodulin ELISA (rabbit polyclonal #2501). The percentages of surviving peptide after 8 or 2 μg/ml protease treatment were, respectively: V-nephrilin (imm3N1V): 57.6±2.3% and 79.0±0.7%; sV-nephrilin (immX3N1): 75.1±2.8% and 90.4±3.4% (p<0.001 at both concentrations). Thus, the immX tripeptide extension at the C-terminus using D-amino acids improved peptide stability to protease degradation.

[4] = test system: rat scald-endotoxemia model; assay: Experiment 5B rat scald-endotoxemia model; format: in vivo, Sprague Dawley rats; conditions: for Change in body weight (Pct vs Day 1): Day 5; for Respiratory distress (Gp. “S” = 100): Day 8, 4 hours after LPS; for Wet/dry lung weight (corrected for body weight): Day 8, after LPS 2.5 mg/kg ip
Method: Experiment 5B. This study explores the effect of immX extensions on sV-nephrilin (SEQ ID NO:31) vs V-nephrilin, as well as in a longer peptide also containing the immX extension (Traumatin-3N1A: SEQ ID NO:35) on in vivo efficacy in a rat scald-endotoxemia model. Animals were treated with peptides using a widely used protocol previously described (see, for example, U.S. Pat. No. 10,369,191). Adult Sprague Dawley rats of both sexes (250-300 gm, Charles River Laboratories, Wilmington, MA, USA) were injected with peptide plus equimolar ferric iron once daily by subcutaneous bolus injection, days 1-7; Treatment group sizes were (n=6): group S=sham-treated; group B=burn+vehicle; group V=burn+1 mg/kg V-nephrilin (V); group sV=burn+1 mg/kg sV-nephrilin (immX3N1sV); group T=burn+1 mg/kg Traumatin-3N1A. The first dose was administered after completion of the scald procedure. Injection volume was 400 uL. Control animals received the same volume of vehicle. On Day 8, animals received a single intraperitoneal injection of 2.5 mg/kg lipopolysaccharide (LPS; Sigma Cat #L-2880) and animals were then monitored by oximeter (MouseOx, Starr Life Sciences) for 4 hours, when respiratory distress (breath distension*breaths/min) was assessed relative to baseline. This was followed by sacrifice and tissue collection as in the published protocol, except that bronchoalveolar lavage (BAL) was collected and cells were recovered from BAL by centrifugation. These cells were stained with fluorescently-labeled antibodies for flow cytometry in order to ascertain granulocyte counts, as shown below. Results of the peptide comparison are presented in the table below. *p<0.05 vs “B” control. #p<0.05 vs “V” group.

[5] = Experiment 4D binding to FITC-labelled hyaluronic acid; conditions: biotinylated peptide 1 ug/well; 1 ug FITC-labelled hyaluronic acid, 90 minutes
Method: (§2) Streptavidin-coated 96-well plates (G-Biosciences, St. Louis, MO) were pre-treated with biotinylated peptides [see Example 1 for key] at 1 ug/well, at room temperature for 60 minutes. The plate was washed with PBS buffer and then 1 ug FITC-labelled heparin or hyaluronic acid in 100 uL PBS buffer was added per well (all tests in quadruplicate). Incubation proceeded for 90 minutes at room temperature, followed by two PBS washes. The plate was read in a standard laboratory fluorometer (488/525 nm exitation/[…]) and the counts normalized for immX3 peptide binding=100. Values statistically above background are shown in bold font. **p<0.05 versus immX3AVD.

[6] = test system: THP1-Dual monocytes; assay: THP1-Dual monocyte differentiation assay, PMA protocol; format: cell-based, human; conditions: peptide 330 nM, 24 hours; for CD169+ (AU): relative to immX3AVD = 100
Method: as §1

[7] = Ferric iron-binding assay of biotinylated immodulin peptides; conditions: N-terminally biotinylated peptide, 400 ng per well, 60 min room temperature; immX3AVD = 100
Description: N-terminally biotinylated versions of the peptides listed below were used in ferric iron-binding assays involving either an Alexa488-labeled streptavidin protocol (Binding Assay 1) or FITC-NTA assay (Binding Assay 2). Fluorescence was standardized to binding with immX3AVD control peptide (100) and the average of multiple experiments using both protocols is shown. P values are shown relative to the control immX3AVD peptide (**<0.05). D-amino acid residues are underlined in the sequences and the extension tripeptide of immX peptides is shown in bold font. Binding Assay 1 was done as follows: NTA coated 96-well plates (G-Biosciences, St. Louis, MO) were charged with ferric chloride and contacted with equimolar biotinylated peptide: streptavidin-A488 complex (400 ng peptide per well) for 60 min at room temperature, washed with phosphate-buffered saline (PBS) and read at 525 nm in a fluorescence counter. Binding Assay 2 was done as follows: Streptavidin coated 96-well plates (G-Biosciences, St. Louis, MO) were contacted with 400 ng peptide per well in PBS buffer for 60 minutes at room temperature, washed in PBS, then contacted with FITC-NTA (TRC, Toronto, Canada) complexed with equimolar ferric chloride (10× molar equivalent per well) for 60 min at room temperature, washed with PBS and read at 525 nm in a fluorescence counter.

[8] = test system: THP1-Dual monocytes; assay: THP1-Dual monocyte differentiation assay, cytokine protocol; format: cell-based, human; conditions: peptide 330 nM, 24 hours, relative to immX3AVD = 100
Method: as §1

[9] = Experiment 4D binding to FITC-labelled heparin; conditions: biotinylated peptide 1 ug/well; 1 ug FITC-labelled heparin, 90 minutes
Method: as §2

[10] = Day 1, burn + 1 mg/kg peptide plus equimolar ferric iron, subcutaneous once daily
[11] = burn + 1 mg/kg peptide plus equimolar ferric iron, subcutaneous once daily
[12] = burn + 1 mg/kg peptide days 1-7
[13] = Day 8, after LPS, burn + 1 mg/kg peptide days 1-7

Molecule	remaining at 20 min ([3]; 2 μg/ml protease) [%]	remaining at 20 min ([3]; 8 μg/ml protease) [%]	Plasma albumin mg/ml (24 hr IR) [4, 10]	Change in body weight (Pct vs Day 1) [4, 11]	Respiratory distress (Gp. “S” = 100) [4, 12]	Wet/dry lung weight (corrected for body weight) [4, 12]	BAL His48+ granulocytes (FITC units) [4, 13]	CD169+ (AU) [6] [AU]	Ferric iron binding, fluorescence standardized to immX3AVD control peptide (100), Avg ± SD [7]	other results
Oc1c(C(Nc2nc3ccccc3s2)c2ccc(OC(F)F)cc2)ccc2cccnc12 (stereo not shown) [RIG-I agonist [b], reference compound]	–	–	–	–	–	–	–	–	–	CD169 (AU) [1]: 131.6 ± 4.6** AU; percent survival of A375 cells, RIG-I ag without peptide ([2]; RIG-I agonist 4 uM alone (No peptide)): 100.7%
CC(C)C[C@H](NC(=O)[C@H](Cc1ccc(O)cc1)NC(=O)[C@H](CC(=O)O)NC(=O)[C@H](CCC(=O)O)NC(=O)[C@@H](NC(=O)[C@@H](NC(=O)CNC(=O)[C@@H](N)CCCNC(=N)N)C(C)C)[C@@H](C)O)C(=O)N[C@@H](CCCNC(=N)N)C(=O)N[C@@H](CC(C)C)C(=O)N[C@@H](CCC(=O)O)C(=O)N[C@H](C(=O)N[C@@H](CC(C)C)C(=O)N[C@H](C(=O)N[C@@H](CCC(N)=O)C(=O)N[C@@H](CCCCN)C(=O)N[C@H](C(=O)N[C@H](C(=O)N[C@@H](CO)C(=O)N[C@@H](CCCCN)C(=O)NCC(=O)N[C@@H](Cc1ccccc1)C(=O)N[C@@H](Cc1ccc(O)cc1)C(=O)N[C@@H](CCCCN)C(=O)N[C@@H](CCCCN)C(=O)N[C@@H](CCCCN)C(=O)N[C@@H](CCC(N)=O)C(=O)N[C@@H](CS)C(=O)N[C@@H](CCCNC(=N)N)C(=O)N1CCC[C@H]1C(=O)N[C@@H](CO)C(=O)N[C@@H](CCCCN)C(=O)NCC(=O)N[C@@H](CCCNC(=N)N)C(=O)N[C@@H](CCCCN)C(=O)N[C@@H](CCCNC(=N)N)C(=O)NCC(=O)N[C@@H](Cc1ccccc1)C(=O)N[C@@H](CS)C(=O)N[C@@H](Cc1c[nH]c2ccccc12)C(=O)O)C(C)C)C(C)C)C(C)C)[C@@H](C)O [V-nephrilin] (H-RGVTEDYLRLETLVQKVVSKGFYKKKQCRPSKGRKRGFCW-OH; N-terminus and C-terminus assumed)	79 ± 0.7	57.6 ± 2.3	7.9 ± 2.1 mg/mL	−9.8 ± 2.9 Pct	349 ± 95	7.97 ± 0.76	28.9 ± 3.1* FITC units	–	–	Plasma IL-6 [4, 10]: 31.4 ± 19 pg/mL; BAL fluid IL1-beta [4, 13]: 112.8 ± 9.4 pg/mL; Plasma OHDG [4, 13]: 1.44 ± 1.0 ng/mL; Plasma creatinine [4, 13]: 0.91 ± 0.3 mg/dL
CC(C)[C@H](NC(=O)[C@H](C)NC(=O)[C@H](Cc1c[nH]c2ccccc12)NC(=O)[C@H](CS)NC(=O)[C@H](Cc1ccccc1)NC(=O)CNC(=O)[C@H](CCCNC(=N)N)NC(=O)[C@H](CCCCN)NC(=O)[C@H](CCCNC(=N)N)NC(=O)CNC(=O)[C@H](CCCCN)NC(=O)[C@H](CO)NC(=O)[C@@H]1CCCN1C(=O)[C@H](CCCNC(=N)N)NC(=O)[C@H](CS)NC(=O)[C@H](CCC(N)=O)NC(=O)[C@H](CCCCN)NC(=O)[C@H](CCCCN)NC(=O)[C@H](CCCCN)NC(=O)[C@H](Cc1ccc(O)cc1)NC(=O)[C@H](Cc1ccccc1)NC(=O)CNC(=O)[C@H](CCCCN)NC(=O)[C@@H](N)CCCCN)C(=O)N[C@@H](CC(=O)O)C(=O)O [immX3AVD] (H-KKGFYKKKQCRPSKGRKRGFCWAVD-OH; N-terminus and C-terminus assumed)	–	–	–	–	–	–	–	100	100.0	Hyaluronate binding, counts normalized for immX3 peptide binding=100 [5]: 100.0 ± 22.8; Clec12A(AU) [8]: 100 AU; Heparin binding, counts normalized for immX3 peptide binding=100 [9]: 100.0 ± 4.7
(rg108)-KKGFYKKKQCRPSKGRKRGFCW (RG108-KKGFYKKKQCRPSKGRKRGFCW; cysteine pairing not given here) [imm3rg8, imm3 N-terminally conjugated with RG108]	–	–	–	–	–	–	–	–	–	percent survival of A375 cells, +RIG-I ag ([2]; peptide 2 uM plus RIG-I agonist 4 uM): 105.8%; percent survival of A375 cells, Buffer ([2]; peptide 2 uM, no RIG-I agonist): 89.9** percent
KKGFYKKKQCRPSKGRKRGFCWRVD [immX3RVD]	–	–	–	–	–	–	–	88.1 ± 4.2	97.5 ± 5.1	CCL22 ([6]; culture supernatant): 272.5 ± 35.7 pg/mL
RGVTEDYLRLETLVQKVVSKGFYKKKQCRPSKGRKRGFCWAVD (cysteines drawn unpaired) [sV-nephrilin]	90.4 ± 3.4	75.1 ± 2.8	7.4 ± 1.6* mg/ml	−5.1 ± 3.6* Pct	203 ± 30*#	7.07 ± 0.48*	26.8 ± 4.0* FITC units	–	–	Plasma IL-6 (pg/ml) [4, 10]: 17.5 ± 9.3* pg/ml; BAL fluid IL1-beta (pg/ml) [4, 13]: 67.1 ± 16*# pg/ml; Plasma OHDG (ng/ml) [4, 13]: 1.31 ± 0.6* ng/ml; Plasma creatinine (mg/dL) [4, 13]: 0.73 ± 0.2* mg/dL
